Data as given in US4018925A, “Method of arresting bacterial growth with certain selected dichloro-2,2,5,5-tetrasubstituted-3-6-piperazinediones” (Interx Research Corporation, priority 1975, dated 1977).

How the values were obtained:
[1] = tested on: Bord. bronchiseptica; assay: Antibacterial activity: time required for complete sterilization (modified serial dilution method); type: cell-based, Bord. bronchiseptica ATCC 4617
Description: (§1) The procedure to determine the antibacterial activity of 1,4-dichloro-2,2,5,5-tetramethyl-3,6-piperazinedione was based primarily on a modification of the serial dilution method of analysis. However, instead of determining the minimum inhibitory concentration parameters for the compound investigated, applicants alternatively chose to determine the bactericidal endpoint for a given concentration of the compound investigated. Consequently, applicants studies were established to determine the time required for complete sterilization of the micro-organism tested, when exposed to a given concentration of the compound investigated.
(§2) Nutrient Broth B.B.L. -- 8g/1000 ml. distilled water. The broth contains 5g. gelysate peptone and 3g. beef extract. The solution has a pH of 6.9.
(§3) Nutrient Agar -- 23g/1000 ml. distilled water. The nutrient contains 5g. gelysate peptone, 3g. beef extract and 15g. agar.
(§4) Horse Serum T.C. -- 10% horse serum solution in distilled water. The serum solution was freshly prepared and adjusted to a pH of 7 using carbon dioxide prior to its use.
(§5) A stock solution of the isolated compound (1,4,dichloro-2,2,5,5-tetramethyl-3,6-piperazinedione) was prepared using an appropriate buffered solution.
(§6) For screening in the absence of a denaturing agent (e.g., horse serum) an equal volume of distilled water and the resulting solution was subjected to the screen.
(§7) For screening in the presence of a denaturing agent, a volume of the stock solution was diluted using an equal volume of 10% horse serum. When necessary, the final solution was adjusted to the desired pH using 1N HCL and the solution was permitted to stand at room temperature for thirty minutes prior to the screening procedure.
(§8) To 5 ml. of the stock solution being evaluated, there was added 0.2 ml. of an overnight broth culture containing the particular micro-organism being investigated (see above). At time intervals of 0.5, 1, 2, 3, 4, 5, . . . minutes, a loop of this suspension was subcultured into 5 ml. of a sterile nutrient broth. All the samples were then incubated at 37° C for seven days with daily observation for evidence of bacterial growth. The time interval reported is for that sample in which no bacterial growth was observed after the incubation period.
(§9) To 5 ml. of a sterile 0.9% sodium chloride solution, there was added 0.2 ml. of an overnight broth culture containing the particular micro-organismbeing investigated. A loop of this suspension was subcultured into 5 ml. of a sterile nutrient broth and incubated at 37° C for seven days.
(§10) To 5 ml of a sterile nutrient broth, there was added a loop of the 1,4-dichloro-2,2,5,5-tetramethyl-3,6-piperazinedione solution and the solution was mixed immediately. To this solution, there was then added a loop of an overnight broth culture which was diluted 25x with a 0.9% sodium chloride solution. Incubation was carried out for seven days at a temperature of 37° C.
(§11) At the same time intervals used for subculturing the test solution into nutrient broth during the screening procedure, a loop of the test solution was also subcultured onto sterile nutrient agar plates. This technique was useful for observing the characteristic colonial morphology of each organism.
(§12) The entire screening procedure was conducted for each buffered solution using the buffered solution rather than the 1,4-dichloro-2,2,5,5-tetramethyl-3,6-piperazinedione solution in the procedure.

[2] = tested on: Pseud. aeruginosa; assay: as above; type: cell-based, Pseud. aeruginosa ATCC 9027
Description: as §1, §2, §3, §4, §5, §6, §7, §8, §9, §10, §11, §12

[3] = tested on: Staph. epidermidis; assay: as above; type: cell-based, Staph. epidermidis ATCC 12228
Description: as §1, §2, §3, §4, §5, §6, §7, §8, §9, §10, §11, §12

[4] = tested on: Staph. aureus; assay: as above; type: cell-based, Staph. aureus ATCC 6538
Description: as §1, §2, §3, §4, §5, §6, §7, §8, §9, §10, §11, §12

[5] = tested on: E. coli; assay: as above; type: cell-based, E. coli ATCC 10536
Description: as §1, §2, §3, §4, §5, §6, §7, §8, §9, §10, §11, §12

[6] = Stability of N-chloramines in aqueous solution (half-life, iodometric and/or spectrophotometric); type: physicochemical; conditions: for half-life: temperature 40
Description: The stability of the compound, 1,4-dichloro-2,2,5,5-tetramethyl-3,6-piperazinedione in aqueous solution was determined by (1) following the disappearance of the positive chlorine concentration of the N-Chloramine solution iodometrically and/or (2) following the decrease in the absorbance at the maximum wavelength spectrophotometrically.
The data obtained was interpreted in terms of a first order kinetic process and the half-life of said compound was reported in units of time at the condition under which they were determined.

[7] = tested on: Kleb. pneumoniae; assay: Antibacterial activity: time required for complete sterilization (modified serial dilution method); type: cell-based, Kleb. pneumoniae ATCC 10031
Description: as §1, §2, §3, §4, §5, §6, §7, §8, §9, §10, §11, §12

[8] = 0.1M Na2B4O7 pH8.8, diluent H2O, 0.62 × 10^-3 M (146PPM), positive Cl 43 PPM
[9] = 0.1M NaH2PO4, diluent H2O, 0.52 × 10^-3 M, positive Cl 36 PPM
[10] = 0.1M NaH2PO4 pH7.0, diluent serum (10% horse serum), 0.52 × 10^-3 M (126PPM), positive Cl 36 PPM
[11] = 0.1M NaOAc pH 4.6, diluent H2O, 0.59 × 10^-3 M (139 PPM), positive Cl 41 PPM
[12] = 0.1M NaOAc pH 4.6, diluent serum (10% horse serum), 0.59 × 10^-3 M (139 PPM), positive Cl 41 PPM

CC1(C)C(=O)N(Cl)C(C)(C)C(=O)N1Cl [1,4-dichloro-2,2,5,5-tetramethyl-3,6-piperazinedione]
Antibacterial activity time, 4617 [1, 8]: 4 min
Antibacterial activity time, 4617 [1, 9]: 3 min
Antibacterial activity time, 4617 [1, 10]: > 15 min
Antibacterial activity time, 4617 [1, 11]: 1 min
Antibacterial activity time, 4617 [1, 12]: > 10 min
Antibacterial activity time, 9027 [2, 8]: 4 min
Antibacterial activity time, 9027 [2, 9]: 5 min
Antibacterial activity time, 9027 [2, 10]: > 15 min
Antibacterial activity time, 9027 [2, 11]: 3 min
Antibacterial activity time, 9027 [2, 12]: > 10 min
Antibacterial activity time, 12228 [3, 8]: 2 min
Antibacterial activity time, 12228 [3, 9]: 2 min
Antibacterial activity time, 12228 [3, 10]: > 15 min
Antibacterial activity time, 12228 [3, 11]: 2 min
Antibacterial activity time, 12228 [3, 12]: > 15 min
Antibacterial activity time, 6538 [4, 8]: 4 min
Antibacterial activity time, 6538 [4, 9]: 4 min
Antibacterial activity time, 6538 [4, 10]: > 15 min
Antibacterial activity time, 6538 [4, 11]: 3 min
Antibacterial activity time, 6538 [4, 12]: > 15 min
Antibacterial activity time, 10536 [5, 8]: 1 min
Antibacterial activity time, 10536 [5, 9]: 1 min
Antibacterial activity time, 10536 [5, 10]: > 15 min
Antibacterial activity time, 10536 [5, 11]: 1 min
Antibacterial activity time, 10536 [5, 12]: > 10 min
half-life ([6]; 0.1M Na2B4O7 pH 9.3): 38 h
half-life ([6]; 0.1M NaH2PO4 pH 7.0): 332 h
half-life ([6]; 0.1M NaOAc pH 4.6): 3070 h
Stability (half-life) compared with 1,4-dichloro-2,5-piperazinedione ([6]; same pH (4.6, 7.0 and 9.3)): far greater stability (half-life)
Antibacterial activity time, 10031 [7, 8]: 4 min
Antibacterial activity time, 10031 [7, 9]: 4 min
Antibacterial activity time, 10031 [7, 10]: > 15 min
Antibacterial activity time, 10031 [7, 11]: 2 min
Antibacterial activity time, 10031 [7, 12]: > 10 min

O=C1CN(Cl)C(=O)CN1Cl [1,4-dichloro-2,5-piperazinedione, reference compound]
half-life ([6]; 0.1M Na2B4O7 pH 9.3): 0.717 h
half-life ([6]; 0.1M NaH2PO4 pH 7.0): 0.883 h
half-life ([6]; 0.1M NaOAc pH 4.6): 15.5 h
